The source of these data is US20240238268A1, “TREATMENTS AND METHODS FOR TREATING ALZHEIMER'S DISEASE” (Board of Supervisors of Louisiana State University and …, priority 2021, published 2024).

One test concerns eNOS. In words: eNOS protein level in brain, capillary-phoresis. As to conditions: treated 3xTg-AD mice; control = 100%. In kind it is in vivo, mouse. The source says:
(§1) Capillary-phoresis immunoassay via ProteinSimple®: Quantification of all protein targets was achieved using Simple Western analysis in a Jess™ apparatus per the manufacturer's protocol (ProteinSimple, Bio-techne, Minneapolis, MN). Protein was extracted from dissected tissue in an extraction buffer consisting of T-PER® Tissue Protein Extraction Reagent (Cat. No. 78510, Thermo Fischer Scientific, Waltham, MA) and Halt™ Protease Inhibitor Cocktail (Cat. No. 87785, Thermo Fischer Scientific, Waltham, MA). Following homogenization and centrifugation (10,000×g, 5 min, 4° C.), protein concentration was determined in tissue protein supernatant samples using DC Protein Assay (Cat. No. 5000112, Bio-Rad Laboratories, Hercules, California) according to manufacturer instructions. […] Antibody diluent (ProteinSimple, Bio-techne, Minneapolis, MN) was used for all antibody dilutions as follows: PRMT4 (1:50, RRID: AB_2068436), PRMT6 (1:100, Cell Signaling Technology cat. 14641), eNOS (1:200, RRID: AB_10850618), nNOS (1:100, RRID: AB_2152488), iNOS (1:100, RRID: AB_10000625), DDAH2 (1:50, RRID: AB_2640442) Antibodies were detected using HRP-conjugated secondary anti-rabbit, and -mouse. Relative protein levels were calculated by measuring the area under the peak of a chemiluminescent chromatogram and normalized to total capillary chemiluminescence for a given sample. […]

Another test relates to iNOS. The experiment in a line: iNOS protein level in brain, capillary-phoresis. In kind it is in vivo, mouse. As to conditions: treated 3xTg-AD mice; control = 100%.
Excerpt: as §1

Test [1] concerns aged 3xTg-AD female mice. In words: T-maze spontaneous alternation. Type of test: in vivo, mouse. As to conditions: 30 mg/kg, 7 days, IP. On the procedure:
(§2) FIGS. 20A and 20B are two graphs showing PRMT4 inhibitor (TP-064) or AAV knockdown of PRMT4 improved functional learning/memory in aged 3xTg-AD female mice. […] C57 but increased with administration of TP-064 (30 mg/kg, 7 days, IP). In FIG. 20B, in Novel Object Recognition, aged 3xTg-AD female mice had fewer number of entries in the novel zone v. C57. Treatment with TP-064 or brain-specific AAV knockdown of PRMT4 increased the number of entries. T-maze and novel object recognition test were utilized to analyze working/short-term and reference/long-term memory, respectively. * p<0.05 v. C57 via one-way ANOVA with Tukey's post-hoc analyses.

Test [2] relates to aged 3xTg-AD female mice. The experiment in a line: Novel Object Recognition. Type of test: in vivo, mouse. The procedure: as §2
In another test the target is PRMT4 (Homo sapiens, UniProt Q86X55). As to conditions: cited from earlier work.
Sequence of PRMT4 (Q86X55 whole entry, species assumed): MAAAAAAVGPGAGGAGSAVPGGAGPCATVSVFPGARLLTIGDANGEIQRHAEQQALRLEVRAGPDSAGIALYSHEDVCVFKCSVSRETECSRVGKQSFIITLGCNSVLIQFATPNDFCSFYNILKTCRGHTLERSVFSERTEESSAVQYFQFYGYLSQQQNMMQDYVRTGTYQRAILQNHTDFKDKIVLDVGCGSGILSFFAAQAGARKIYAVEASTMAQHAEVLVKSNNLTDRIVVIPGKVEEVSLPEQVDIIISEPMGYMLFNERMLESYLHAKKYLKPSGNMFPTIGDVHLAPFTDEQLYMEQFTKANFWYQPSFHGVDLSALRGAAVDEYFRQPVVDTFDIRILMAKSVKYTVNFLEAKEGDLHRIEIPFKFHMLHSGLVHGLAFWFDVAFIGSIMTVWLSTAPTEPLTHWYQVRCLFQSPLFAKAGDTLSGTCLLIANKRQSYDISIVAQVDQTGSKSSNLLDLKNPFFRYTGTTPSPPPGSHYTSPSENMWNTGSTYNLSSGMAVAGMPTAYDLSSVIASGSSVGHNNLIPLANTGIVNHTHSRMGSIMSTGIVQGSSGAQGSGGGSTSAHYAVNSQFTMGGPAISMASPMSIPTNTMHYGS

Regarding `CNCCN1CCC(c2cc(CN(C)C(=O)c3cccc(Oc4ccccc4)c3)ccn2)CC1` [TP-064, N-Methyl-N-((2-(1-(2-(methylamino)ethyl)piperidin-4-yl)pyridin-4-yl)methyl)-3-phenoxybenzamide], in the test on eNOS, the “eNOS level in cortical lysates” value was 94.0%±25.6 and the “eNOS level in hippocampal lysates” value is listed as 69.5%±2.71. In the test on iNOS, the “iNOS level in cortical lysates” value is reported as 197%±24.1 and the “iNOS level in hippocampal lysates” value was 157%±17.5. Further, in the test with aged 3xTg-AD female mice [1], the “T-maze spontaneous alternation ratio” value is listed as “increased”. The “number of entries in the novel zone” value in the test with aged 3xTg-AD female mice [2] is “increased”. Also, at PRMT4, the “selectivity over other histone methyltransferases and non-epigenetic targets” value is on record as > 100 fold.
